From ChEMBL document CHEMBL6121034, “Expanding the Chemical Space of Reverse Fosmidomycin Analogs” (ACS Med Chem Lett, 2025)
In brackets after ≈: the same amount, converted by molar mass.

How the values were obtained:
[1] = target: T1, 1-deoxy-D-xylulose 5-phosphate reductoisomerase (Escherichia coli K-12, UniProt P45568); test: Inhibition of recombinant Escherichia coli DXR extracted from Escherichia coli M15 using DXP as substrate by NADPH consumption based photometric assay
T1 sequence (P45568 whole entry): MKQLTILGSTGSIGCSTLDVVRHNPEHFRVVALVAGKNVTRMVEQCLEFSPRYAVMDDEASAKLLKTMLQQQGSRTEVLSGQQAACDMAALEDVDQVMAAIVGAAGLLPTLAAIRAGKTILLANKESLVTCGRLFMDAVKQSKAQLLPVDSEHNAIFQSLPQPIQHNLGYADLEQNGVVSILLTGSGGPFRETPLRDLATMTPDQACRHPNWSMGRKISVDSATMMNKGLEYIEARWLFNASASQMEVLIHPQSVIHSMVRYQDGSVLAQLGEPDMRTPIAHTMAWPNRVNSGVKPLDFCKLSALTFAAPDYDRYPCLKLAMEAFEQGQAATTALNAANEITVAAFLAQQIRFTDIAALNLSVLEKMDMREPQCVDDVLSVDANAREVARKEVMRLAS

[2] = Selectivity ratio of IC50 for antiparasitic activity against multidrug-resistant Plasmodium falciparum Dd2 at asexual stage infected in O Rh+ erythrocytes to IC50 for inhibition of Plasmodium falciparum DXR extracted from Escherichia coli
[3] = target: T2, 1-deoxy-D-xylulose 5-phosphate reductoisomerase, apicoplastic (Plasmodium falciparum (isolate 3D7), UniProt Q8IKG4); test: Inhibition of Plasmodium falciparum DXR extracted from Escherichia coli using DXP as substrate by NADPH consumption based photometric assay
T2 sequence (Q8IKG4 whole entry): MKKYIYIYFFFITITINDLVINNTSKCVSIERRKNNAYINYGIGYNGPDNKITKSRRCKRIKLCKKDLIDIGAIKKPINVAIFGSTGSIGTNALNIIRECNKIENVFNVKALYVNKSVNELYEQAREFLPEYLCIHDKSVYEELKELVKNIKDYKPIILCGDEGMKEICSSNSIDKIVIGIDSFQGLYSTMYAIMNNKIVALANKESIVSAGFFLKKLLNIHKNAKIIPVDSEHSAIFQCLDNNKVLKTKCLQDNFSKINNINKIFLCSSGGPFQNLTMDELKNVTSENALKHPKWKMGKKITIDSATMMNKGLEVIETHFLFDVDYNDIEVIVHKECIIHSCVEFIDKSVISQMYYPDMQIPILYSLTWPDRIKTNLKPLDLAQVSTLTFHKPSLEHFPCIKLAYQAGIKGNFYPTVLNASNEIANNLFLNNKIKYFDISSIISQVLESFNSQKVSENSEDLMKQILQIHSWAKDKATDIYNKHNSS

[4] = test system: Plasmodium falciparum; test: Antiparasitic activity against multidrug-resistant Plasmodium falciparum Dd2 at asexual stage infected in O Rh+ erythrocytes by ELISA method; format: functional, organism-based; conditions: Dd2, Erythrocyte
[5] = test system: Escherichia coli; test: Antibacterial activity against Escherichia coli ATCC 25922 […] by CLSI based broth microdilution assay; format: functional
[6] = Selectivity ratio of IC50 for antiparasitic activity against CQ-sensitive Plasmodium falciparum 3D7 at asexual stage infected in O Rh+ erythrocytes to IC50 for inhibition of Plasmodium falciparum DXR extracted from Escherichia coli
[7] = test system: Mycobacterium tuberculosis; test: Antibacterial activity against wild-type Mycobacterium tuberculosis H37Rv incubated for 5 days by CLSI based broth microdilution assay; format: functional; conditions: 120 h, time 5 day
[8] = test system: Plasmodium falciparum; test: Antiparasitic activity against CQ-sensitive Plasmodium falciparum 3D7 at asexual stage infected in O Rh+ erythrocytes by ELISA; format: functional, organism-based; conditions: 3D7, Erythrocyte
[9] = target: T3, 1-deoxy-D-xylulose 5-phosphate reductoisomerase (Mycobacterium tuberculosis, UniProt P9WNS1); test: Inhibition of recombinant Mycobacterium tuberculosis DXR extracted from Escherichia coli M15 using DXP as substrate by NADPH consumption based photometric assay
T3 sequence (P9WNS1 whole entry): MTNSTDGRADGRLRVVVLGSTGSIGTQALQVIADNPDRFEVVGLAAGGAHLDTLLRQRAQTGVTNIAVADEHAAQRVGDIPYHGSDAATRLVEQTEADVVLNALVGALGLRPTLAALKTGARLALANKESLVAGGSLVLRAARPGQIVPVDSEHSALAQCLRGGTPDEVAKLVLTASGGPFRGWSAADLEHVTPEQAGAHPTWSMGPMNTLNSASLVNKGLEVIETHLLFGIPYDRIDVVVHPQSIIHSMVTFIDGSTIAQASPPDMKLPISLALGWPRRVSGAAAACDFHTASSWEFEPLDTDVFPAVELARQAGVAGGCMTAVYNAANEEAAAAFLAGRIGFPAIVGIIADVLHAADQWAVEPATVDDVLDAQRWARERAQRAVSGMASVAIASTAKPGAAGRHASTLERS

[10] = test system: Escherichia coli; test: Antibacterial activity against Escherichia coli incubated for 20 hrs; format: functional

For `CN(O)C(=O)CSC(c1cccc(OCCCCCCN2C(=O)c3ccccc3C2=O)c1)P(=O)(O)O` (racemic), the IC50 [1] was 68 nM, the “Ratio IC50” value [2] was 100 and the IC50 [3] was 97 nM. The IC50 [4] was 9800 nM, the MIC [5] was greater than 100 µM and the “Ratio IC50” value [6] was greater than 120. For the same compound, the MIC [7] was greater than 100 µM, the IC50 [8] was greater than 12000 nM and the IC50 [9] was 1700 nM.

For `CCCCCCOc1ccc(C(SCC(=O)N(C)O)P(=O)(O)O)cc1` (racemic), the IC50 [1] was 17 nM, the “Ratio IC50” value [2] was 120 and the IC50 [3] was 48 nM. For the same compound, the IC50 [4] was 5800 nM, the MIC [5] was greater than 100 µM and the “Ratio IC50” value [6] was 170. The MIC [7] was greater than 100 µM, the IC50 [8] was 8000 nM and the IC50 [9] was 92 nM.

Work on `O=CN(O)CCCP(=O)(O)O` [FOSMIDOMYCIN] yielded an MIC [10] of 6.25 µM (≈ 1.14 µg/mL).

In the case of `CN(O)C(=O)CSC(c1ccc(OCCCCCCN2C(=O)c3ccccc3C2=O)cc1)P(=O)(O)O` (racemic), the IC50 [1] is reported as 13 nM, the “Ratio IC50” value [2] is reported as 90 and the IC50 [3] is reported as 21 nM. The IC50 [4] was 1900 nM, the MIC [5] was greater than 100 µM and the “Ratio IC50” value [6] was 120. The MIC [7] was greater than 100 µM, the IC50 [8] was 2600 nM and the IC50 [9] was 160 nM.
